Like-named read-outs stand apart in the source and are kept apart here.
Tested on: Human myeloid monocytic leukemia cell line (MV-4-11)
Assay: Inhibition of MV-4-11 cell proliferation (CellTiter luminescent viability)
Assay type: cell-based
Conditions: Homo sapiens, MV4-11; for inhibition at 0.01 µM: read-out: Inhibition Rate at 10 nM (%); for inhibition at 0.5 µM: read-out: Inhibition Rate at 500 nM (%)
Experimental: The tumor cells used herein were cultured in a cell culture medium listed in table 3 at 37 °C in an incubator with 5% CO2. Prior to experimentation, all cell lines used were correctly identified by STR profiling, and tested negative for mycoplasma contamination using a mycoplasma detection kit through routine screenings.
The IC50 values of the compounds of the present disclosure (including the compounds in Table 1, Table 2, and Examples 1-468) were determined using the CellTiter-Meiluncell Luminescent Cell Viability Assay Kit from Dalian Meilun Biotech Co., Ltd. The detailed procedure is as follows: Tumor cells were seeded in 96-well cell culture plates at the densities specified in Table 4. On the following day, the test compounds of the present disclosure were subjected to serial dilution. The dilution can be performed according to one of the following two methods: • (1) The first dilution method: The test compounds of the present disclosure (including the compounds in Table 1, Table 2, and Examples 1-468) were subjected to 5-fold serial dilutions starting from a highest concentration of 2000 μM, resulting in a total of 9 concentrations from high to low (2000, 400, 80, 16, 3.2, 0.64, 0.128, 0.0256, 0.00512 μM). Subsequently, 0.5 μL of the test compound dilution was transferred into the 96-well plate containing the cells, with each well containing 100 μL of cell culture medium. […] Into the 96-well plate, the diluted test compounds and corresponding detection reagents were added, resulting in final test compound concentrations of 500 nM and 10 nM, respectively. The experimental procedure is described below using the diluted 2 μM test compound as an example.
0.5 μL of the aforementioned diluted compound of the present disclosure (including the compounds in Table 1, Table 2, and Examples 1-468) was added to the seeded cells in 100 μL of medium, yielding a final test compound concentration of 10 nM. After the cells were treated with the compounds of the present disclosure for a specified period, the cell viability assay reagent was added to the culture medium according to the kit's instructions to determine cell viability. […] All controls were treated using the same procedure as the compounds of the present disclosure. The growth inhibition curves for the compounds of the present disclosure were plotted using Prism GraphPad software, and the IC50 values were calculated therefrom.

[1] = Table IG2, FAK inhibitor-based, MV-4-11, 10 nM, 96 hours
[2] = Table IG2, FAK inhibitor-based, MV-4-11, 500 nM, 96 hours
[3] = Table IL2, BCR-ABL inhibitor-based, MV-4-11, 10 nM, 96 hours
[4] = Table IL2, BCR-ABL inhibitor-based, MV-4-11, 500 nM, 96 hours
[5] = Table IB2, ALK inhibitor-based, MV-4-11, 10 nM, 96 hours
[6] = Table IB2, ALK inhibitor-based, MV-4-11, 500 nM, 96 hours

With `CC(C)(O)c1cc2nn(C3CCN(Cc4ccc5c(c4)CN(N4CCC(=O)NC4=O)C5=O)CC3)cc2cc1NC(=O)c1cccc(C(F)(F)F)n1` [GT-05746, N-(2-(1-((2-(2,4-dioxotetrahydropyrimidin-1(2H)-yl)-1-oxoisoindolin-5-yl)methyl)piperidin-4-yl)-6-(2-hydroxypropan-2-yl)-2H-indazol-5-yl)-6-(trifluoromethyl) picolinamide] the inhibition at 0.01 µM (Table IA3, IRAK4 inhibitor-based, MV-4-11, 10 nM, 96 hours) was 10 to 20% and the inhibition at 0.5 µM (Table IA3, IRAK4 inhibitor-based, MV-4-11, 500 nM, 96 hours) was 60 to 80%.

Molecule `CN(c1nccnc1CNc1nc(Nc2ccc(N3CCN(Cc4ccc5c(c4)CN(N4CCC(=O)NC4=O)C5=O)CC3)cc2)ncc1C(F)(F)F)S(C)(=O)=O` [GT-07504, N-(3-(((2-((4-(4-((2-(2,4-dioxotetrahydropyrimidin-1(2H)-yl)-1-oxoisoindolin-5-yl)methyl)piperazin-1-yl)phenyl)amino)-5-(trifluoromethyl)pyrimidin-4-yl)amino)methyl)pyrazin-2-yl)-N-methylmethanesulfonamide] has an inhibition at 0.01 µM [1] of -5 to 0% and an inhibition at 0.5 µM [2] of 80 to 100%.

`CN(c1nccnc1CNc1nc(Nc2ccc(N3CCC(N4CCN(Cc5ccc6c(c5)CN(N5CCC(=O)NC5=O)C6=O)CC4)CC3)cc2)ncc1C(F)(F)F)S(C)(=O)=O` [GT-08138, N-(3-(((2-((4-(4-(4-((2-(2,4-dioxotetrahydropyrimidin-1(2H)-yl)-1-oxoisoindolin-5-yl)methyl)piperazin-1-yl)piperidin-1-yl)phenyl)amino)-5-(trifluoromethyl)pyrimidin-4-yl)amino)methyl)pyrazin-2-yl)-N-methylmethanesulfonamide] showed an inhibition at 0.01 µM [1] of 20 to 30% and an inhibition at 0.5 µM [2] of 80 to 100%.

For `CN(Cc1ccc2c(c1)CN(N1CCC(=O)NC1=O)C2=O)C1CCN(c2ccc(Nc3ncc(C(F)(F)F)c(NCc4cccc(N(C)S(C)(=O)=O)c4)n3)cc2)CC1` [GT-08142, N-(3-(((2-((4-(4-(((2-(2,4-dioxotetrahydropyrimidin-1(2H)-yl)-1-oxoisoindolin-5-yl)methyl)(methyl)amino)piperidin-1-yl)phenyl)amino)-5-(trifluoromethyl)pyrimidin-4-yl)amino)methyl)phenyl)-N-methylmethanesulfonamide], the inhibition at 0.01 µM [1] was 40 to 50% and the inhibition at 0.5 µM [2] was 80 to 100%.

`CN(c1cccc(CNc2nc(Nc3ccc(N4CCC(N5CCN(Cc6ccc7c(c6)CN(N6CCC(=O)NC6=O)C7=O)CC5)CC4)cc3)ncc2C(F)(F)F)c1)S(C)(=O)=O` [GT-08144, N-(3-(((2-((4-(4-(4-((2-(2,4-dioxotetrahydropyrimidin-1(2H)-yl)-1-oxoisoindolin-5-yl)methyl)piperazin-1-yl)piperidin-1-yl)phenyl)amino)-5-(trifluoromethyl)pyrimidin-4-yl)amino)methyl)phenyl)-N-methylmethanesulfonamide] showed an inhibition at 0.01 µM [1] of 30 to 40% and an inhibition at 0.5 µM [2] of 80 to 100%.

For `Cc1ccc(C(=O)Nc2ccc(CN3CCN(Cc4ccc5c(c4)C(=O)N(N4CCC(=O)NC4=O)C5=O)CC3)c(C(F)(F)F)c2)cc1C#Cc1cnc2cccnn12` [GT-08217, N-(4-((4-((2-(2,4-dioxotetrahydropyrimidin-1(2H)-yl)-1,3-dioxoisoindolin-5-yl)methyl)piperazin-1-yl)methyl)-3-(trifluoromethyl)phenyl)-3-(imidazo[1,2-b]pyridazin-3-ylethynyl)-4-methylbenzamide], the inhibition at 0.01 µM [3] was 10 to 15% and the inhibition at 0.5 µM [4] was 80 to 100%.

Work on `Cc1ccc(C(=O)Nc2ccc(N3CCN(Cc4ccc5c(c4)CN(N4CCC(=O)NC4=O)C5=O)CC3)c(C(F)(F)F)c2)cc1C#Cc1cnc2cccnn12` [GT-08218, N-(4-(4-((2-(2,4-dioxotetrahydropyrimidin-1(2H)-yl)-1-oxoisoindolin-5-yl)methyl)piperazin-1-yl)-3-(trifluoromethyl)phenyl)-3-(imidazo[1,2-b]pyridazin-3-ylethynyl)-4-methylbenzamide] yielded an inhibition at 0.01 µM [3] of 5 to 10% and an inhibition at 0.5 µM [4] of 80 to 100%.

In the case of `Cc1ccc(C(=O)Nc2ccc(N3CCC(N(C)Cc4ccc5c(c4)C(=O)N(N4CCC(=O)NC4=O)C5=O)CC3)c(C(F)(F)F)c2)cc1C#Cc1cnc2cccnn12` [GT-08221, N-(4-(4-(((2-(2,4-dioxotetrahydropyrimidin-1(2H)-yl)-1,3-dioxoisoindolin-5-yl)methyl)(methyl)amino)piperidin-1-yl)-3-(trifluoromethyl)phenyl)-3-(imidazo[1,2-b]pyridazin-3-ylethynyl)-4-methylbenzamide], the inhibition at 0.01 µM [3] was -5 to 0% and the inhibition at 0.5 µM [4] was 50 to 60%.

`COc1cc(N2CCC(N3CCN(CC4CCN(c5ccc6c(c5)C(=O)N(N5CCC(=O)NC5=O)C6=O)CC4)CC3)CC2)ccc1Nc1ncc(Cl)c(Nc2ccccc2P(C)(C)=O)n1` [GT-08251, 5-(4-((4-(1-(4-((5-chloro-4-((2-(dimethylphosphoryl)phenyl)amino)pyrimidin-2-yl)amino)-3-methoxyphenyl)piperidin-4-yl)piperazin-1-yl)methyl)piperidin-1-yl)-2-(2,4-dioxotetrahydropyrimidin-1(2H)-yl)isoindoline-1,3-dione] showed an inhibition at 0.01 µM [5] of 30 to 45% and an inhibition at 0.5 µM [6] of 60 to 80%.

With `COc1cc(N2CCC(N(C)CC3CCN(c4ccc5c(c4)C(=O)N(N4CCC(=O)NC4=O)C5=O)CC3)CC2)ccc1Nc1ncc(Cl)c(Nc2ccccc2P(C)(C)=O)n1` [GT-08253, 5-(4-(((1-(4-((5-chloro-4-((2-(dimethylphosphoryl)phenyl)amino)pyrimidin-2-yl)amino)-3-methoxyphenyl)piperidin-4-yl)(methyl)amino)methyl)piperidin-1-yl)-2-(2,4-dioxotetrahydropyrimidin-1(2H)-yl)isoindoline-1,3-dione] the inhibition at 0.01 µM [5] was 15 to 20% and the inhibition at 0.5 µM [6] was 45 to 55%.

In the case of `COc1cc(N2CCC(N(C)CC3CCN(c4cccc5c4C(=O)N(N4CCC(=O)NC4=O)C5=O)CC3)CC2)ccc1Nc1ncc(Cl)c(Nc2ccccc2P(C)(C)=O)n1` [GT-08254, 4-(4-(((1-(4-((5-chloro-4-((2-(dimethylphosphoryl)phenyl)amino)pyrimidin-2-yl)amino)-3-methoxyphenyl)piperidin-4-yl)(methyl)amino)methyl)piperidin-1-yl)-2-(2,4-dioxotetrahydropyrimidin-1(2H)-yl)isoindoline-1,3-dione], the inhibition at 0.01 µM [5] was 45 to 55% and the inhibition at 0.5 µM [6] was 60 to 80%.

Molecule `C[C@@H]1CNC(=O)c2cc3ccc(C(=O)Nc4cnn(Cc5ccc(N6CCN(CC7CCN(c8ccc9c(c8)C(=O)N(N8CCC(=O)NC8=O)C9=O)CC7)CC6)cc5)c4)nc3n21` [GT-08255, (R)—N-(1-(4-(4-((1-(2-(2,4-dioxotetrahydropyrimidin-1(2H)-yl)-1,3-dioxoisoindolin-5-yl)piperidin-4-yl)methyl)piperazin-1-yl)benzyl)-1H-pyrazol-4-yl)-9-methyl-6-oxo-6,7,8,9-tetrahydropyrido[3′,2′: 4,5]pyrrolo[1,2-a]pyrazine-2-carboxamide] has an inhibition at 0.01 µM (MV-4-11, 10 nM) of -15 to -5% and an inhibition at 0.5 µM (MV-4-11, 500 nM) of 50 to 70%.

For `C[C@@H]1CNC(=O)c2cc3ccc(C(=O)Nc4cnn(Cc5ccc(N6CCN(CC7CCN(c8cccc9c8C(=O)N(N8CCC(=O)NC8=O)C9=O)CC7)CC6)cc5)c4)nc3n21` [GT-08256, (R)—N-(1-(4-(4-((1-(2-(2,4-dioxotetrahydropyrimidin-1(2H)-yl)-1,3-dioxoisoindolin-4-yl)piperidin-4-yl)methyl)piperazin-1-yl)benzyl)-1H-pyrazol-4-yl)-9-methyl-6-oxo-6,7,8,9-tetrahydropyrido[3′,2′: 4,5]pyrrolo[1,2-a]pyrazine-2-carboxamide], the inhibition at 0.01 µM (MV-4-11, 10 nM) was 20 to 30% and the inhibition at 0.5 µM (MV-4-11, 500 nM) was 80 to 100%.

Molecule `Cc1ccc(C(=O)Nc2ccc(CN3CCN(CC4CCN(c5cccc6c5C(=O)N(N5CCC(=O)NC5=O)C6=O)CC4)CC3)c(C(F)(F)F)c2)cc1C#Cc1cnc2cccnn12` [GT-08353, N-(4-((4-((1-(2-(2,4-dioxotetrahydropyrimidin-1(2H)-yl)-1,3-dioxoisoindolin-4-yl)piperidin-4-yl)methyl)piperazin-1-yl)methyl)-3-(trifluoromethyl)phenyl)-3-(imidazo[1,2-b]pyridazin-3-ylethynyl)-4-methylbenzamide] has an inhibition at 0.01 µM [3] of 50 to 60% and an inhibition at 0.5 µM [4] of 80 to 100%.
